{"source": "patent US20090158465A1", "about": "“TRANSGENIC PLANTS WITH ENHANCED DROUGHT-RESISTANCE AND METHOD FOR PRODUCING THE PLANTS” (priority 2006, published 2009)", "key": {"[1]": {"tested_on": "stomata (guard cells) of abo1-1 and wild-type plants", "experiment": "Stomatal aperture (closing) bioassay with ABA", "type": "cell-based, Arabidopsis thaliana", "method": "Stomatal closing assays were conducted as described previously (Pei, Z. M. et al., Plant Cell 9:409-42 (1997)). Rosette leaves were floated in solutions containing 50 μM CaCl2, 10 mM KCl, 10 mM MES [2-(N-morpholino)ethanesulfonic acid]-Tris, pH 6.15, and exposed to light (150 μmol m-2 s-1) for 2 h. […] After ABA treatment for 2 h, stomatal apertures were measured as described previously (Pei, Z. M. et al., Plant Cell 9:409-42 (1997)). Values are means ±standard errors (SE) (n=30). Significance (P<0.05) was assessed by Student's t test.\nIn order to determine the cause of the drought-resistant phenotype of the abo1-1 mutant, we performed experiments to determine whether this phenotype is related to increased sensitivity of stomatal closure to ABA. abo1-1 and wild-type plants were exposed to high humidity for 12 h to open stomata fully. […]"}, "[2]": {"tested_on": "abo1-1 and wild-type seedlings", "experiment": "Seedling growth on MS medium containing ABA", "type": "in vivo, Arabidopsis thaliana", "settings": "abo1-1 versus wild type; 5-day-old seedlings transferred to different concentrations of ABA, scored one week later", "method": "Plants were grown in 340-ml pots filled with a mixture of peat/forest soil and vermiculite (3:1) in a greenhouse at 22° C., with light intensity of 50 μmol m-2 s-1 and 70% rH under long-day conditions (16-h-light/8-h-dark cycle). Seedlings were germinated and grown on Murashige and Skoog (MS) medium (M5519; Sigma) supplemented with 3% (wt/vol) sucrose and 0.8% agar under the same growth conditions.\nWe also analyzed the ABA sensitivities of abo1-plants in seed germination and seedling growth. Seedlings grown for 5 days on MS medium were transferred to MS media containing different concentrations of ABA. One week later, the plants were scored for visible changes. Without ABA, the root growth of abo1-1 plants was slower than that of wild-type plants but they had similar levels of shoot growth. […] The postgermination growth of abo1-1 seedlings was more impaired than that of the wild type, as indicated by the ratio of seedlings with green cotyledons to the total number of seedlings after germination for 1 week (FIG. 3D)."}, "[3]": {"tested_on": "abo1-1 and wild-type leaves", "experiment": "Oxidative stress: leaves from soil-grown plants treated with MV or H2O2 (damage, ion leakage)", "set-up": "species or system Arabidopsis thaliana", "method": "(§1) The leaves taken from plants grown in soil were treated with 1 μM MV. […] Electrolyte leakage (conductivity) is often used as an indicator of tissue damage. […] Rose Bengal is another reagent that generates H2O2 when exposed to the light. […] This was supported by ion leakage measurements at different time points (FIG. 4H)."}, "[4]": {"tested_on": "abo1-1 and wild-type seedlings", "experiment": "Oxidative stress: seedlings on MS medium supplemented with MV", "type": "in vivo, Arabidopsis thaliana", "text": "ABA can induce the expression of genes encoding antioxidant enzymes (Guan, L. et al., Plant Physiol. 117:217-224 (1998); Zhu, D. et al., Plant Physiol. 106:173-178 (1994)). ABA also induces the production of reactive oxygen species that serve as a second messenger in ABA signaling in guard cells (Jiang, M. et al., Plant Cell Physiol. 42:1265-127 (2001); Pei, Z. M. et al., Nature 406:731-73 (2000)). In order to test whether the ABA sensitivity of abo1-1 seedlings might be connected with reactive oxygen species, we analyzed the response of abo1-1 mutant plants to oxidative stress. Methyl viologen (MV) (paraquat) inhibits electron transport in the reduction of NADP to NADPH during photosynthesis and thus enhances H2O2 production in chloroplasts under light (Suntres, Z. E. Toxicology 180:65-7 (2002)). Seedlings grown on MS medium for 5 days were transferred to new MS medium supplemented with different concentrations of MV. The abo1-1 seedlings grew well on MS medium supplemented with 3 μM MV, while more than 50% of wild-type seedlings were killed at this concentration (FIG. 4A) after a 5-day treatment. […] Seed germination was inhibited to similar extents for both abo1-1 and wild-type plants by various concentrations of MV. After radicles emerged, the young seedlings were more sensitive to MV."}, "[5]": {"tested_on": "abo1 mutant and wild-type seedlings", "experiment": "Oxidative stress: seedlings exposed to Rose Bengal", "type": "in vivo, Arabidopsis thaliana", "settings": "10 μM Rose Bengal for 3 days", "method": "as §1"}}}
{"smiles": "CC1=CC(=O)CC(C)(C)[C@@]1(O)/C=C/C(C)=C\\C(=O)O", "note": "[ABA, abscisic acid]", "values": [{"measurement": "stomatal closure", "setting": "[1]; abo1-1 plants, 1 μM ABA for 2 h", "value": "almost completely closed"}, {"measurement": "ABA concentration enhancing stomatal closure in abo1-1 to the same degree as 10 μM ABA in the wild type", "setting": "[1]; abo1-1 plants, preopened stomata, FIG. 2B", "value": 0.5, "unit": "µM"}, {"measurement": "stomatal closure", "setting": "[1]; wild-type plants, 20 μM ABA, same treatment time (2 h), data not shown", "value": "did not completely close"}, {"measurement": "root and shoot growth", "setting": "[2]", "value": "more inhibited than that of the wild type"}]}
{"smiles": "OO", "note": "[H2O2]", "values": [{"measurement": "leaf damage", "setting": "[3]; wild-type leaves versus abo1-1 leaves, 10 mM H2O2 for 5 days", "value": "more damaged than abo1-1 leaves"}]}
{"smiles": "C[n+]1ccc(-c2cc[n+](C)cc2)cc1", "note": "[MV, Methyl viologen]", "values": [{"measurement": "ion leakage (electrolyte leakage, conductivity)", "setting": "[3]; abo1-1 leaves versus wild type, 1 μM MV", "value": "substantially less ion leakage than the wild-type leaves"}, {"measurement": "leaf damage", "setting": "[3]; abo1-1 leaves, 1 μM MV, after 5 days", "value": "enhanced anthocyanin pigmentation but without any apparent chlorotic symptom"}, {"measurement": "leaf damage", "setting": "[3]; wild-type leaves, 1 μM MV, after 5 days", "value": "severely damaged and displayed chlorotic spots or bleaching"}, {"measurement": "cotyledons affected (greening prevented)", "setting": "[4]; abo1-1, 1.2 μM MV for 10 days", "value": 40, "unit": "%"}, {"measurement": "seedling growth", "setting": "[4]; abo1-1 seedlings, 3 μM MV, 5-day treatment", "value": "grew well"}, {"measurement": "seedling survival", "setting": "[4]; abo1 mutant seedlings, 6 μM MV", "value": "still survived"}, {"measurement": "seedlings with cotyledon greening prevented", "setting": "[4]; wild-type seedlings, 1.2 μM MV for 10 days", "value": "more than 90%"}, {"measurement": "seedlings killed", "setting": "[4]; wild-type seedlings, 3 μM MV, 5-day treatment", "value": "more than 50%"}, {"measurement": "seedling survival", "setting": "[4]; wild-type seedlings, 4 μM MV", "value": "completely killed all"}]}
{"smiles": "O=C([O-])c1c(Cl)c(Cl)c(Cl)c(Cl)c1-c1c2cc(I)c(=O)c(I)c-2oc2c(I)c([O-])c(I)cc12.[Na+].[Na+]", "note": "[Rose Bengal]", "values": [{"measurement": "cotyledon damage", "setting": "[5]; abo1 mutant", "value": "no chlorotic symptom observed"}, {"measurement": "cotyledon damage", "setting": "[5]; wild-type seedlings", "value": "severely damaged the cotyledons"}]}
